# Molecular target: T1, human VR1 (Homo sapiens, UniProt Q8NER1)
# T1 construct: expressed in transfected cells
# Test: FLIPR based calcium assay, antagonism of capsaicin response in 1321N1 cells stably expressing human VR1
# Type: cell-based
# Settings: transfected astrocytoma 1321N1 cells, 30 min pre-incubation, capsaicin challenge; pKb generated from IC50 using the Cheng-Prusoff equation
# Experimental: The plates were then washed 4 times with Tyrode containing 1.5 mM calcium, without probenecid. […] Capsaicin (Sigma) was then added to the cells. Compounds having antagonist activity against the human VR1 were identified by detecting differences in fluorescence when measured after capsaicin addition, compared with no compound buffer controls.
# T1 sequence (Q8NER1 whole entry): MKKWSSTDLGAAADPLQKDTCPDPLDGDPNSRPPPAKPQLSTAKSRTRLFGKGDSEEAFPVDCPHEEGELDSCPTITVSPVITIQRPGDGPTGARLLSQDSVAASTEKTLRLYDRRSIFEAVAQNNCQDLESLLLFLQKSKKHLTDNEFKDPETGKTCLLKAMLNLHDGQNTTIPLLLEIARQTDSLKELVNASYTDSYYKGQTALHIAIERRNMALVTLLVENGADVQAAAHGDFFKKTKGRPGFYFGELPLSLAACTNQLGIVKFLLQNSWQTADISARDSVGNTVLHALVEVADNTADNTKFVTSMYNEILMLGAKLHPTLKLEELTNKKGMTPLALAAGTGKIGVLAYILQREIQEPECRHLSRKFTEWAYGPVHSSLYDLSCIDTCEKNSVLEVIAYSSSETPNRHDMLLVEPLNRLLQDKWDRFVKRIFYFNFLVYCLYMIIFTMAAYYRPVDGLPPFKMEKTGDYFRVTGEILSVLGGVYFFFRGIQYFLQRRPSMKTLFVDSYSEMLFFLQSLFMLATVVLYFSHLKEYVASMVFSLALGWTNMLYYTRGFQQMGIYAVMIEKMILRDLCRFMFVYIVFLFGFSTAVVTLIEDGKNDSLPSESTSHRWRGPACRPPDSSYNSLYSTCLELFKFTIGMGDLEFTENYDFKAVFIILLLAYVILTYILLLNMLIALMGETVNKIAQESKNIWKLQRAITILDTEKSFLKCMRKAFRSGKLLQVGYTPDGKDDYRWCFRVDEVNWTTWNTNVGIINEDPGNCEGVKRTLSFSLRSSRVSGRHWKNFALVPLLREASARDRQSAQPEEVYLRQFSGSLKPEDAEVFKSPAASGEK
smiles,measurement,value
Cc1cc2c(NC(=O)NC3CN(c4ccc(C(F)(F)F)cn4)C3)cccc2nn1 [Example 16],Kb,< 0.1 µM

# From US7514562B2, “Urea derivatives and their use as vanilloid receptor antagonists in the treatment of pain” (Glaxo Group Limited, priority 2003, dated 2009)
